The source of these data is patent US20250026769A1, “PAPD5 INHIBITORS AND METHODS OF USE THEREOF” (The Children's Medical Center Corporation, priority 2021, published 2025).

SMILES strings stand for the structures.

In this test the target is T1, rPAPD5 (Homo sapiens, UniProt Q8NDF8).
T1 construct: made in house
T1 sequence (Q8NDF8 68-698 isoform Q8NDF8-5 limits assumed): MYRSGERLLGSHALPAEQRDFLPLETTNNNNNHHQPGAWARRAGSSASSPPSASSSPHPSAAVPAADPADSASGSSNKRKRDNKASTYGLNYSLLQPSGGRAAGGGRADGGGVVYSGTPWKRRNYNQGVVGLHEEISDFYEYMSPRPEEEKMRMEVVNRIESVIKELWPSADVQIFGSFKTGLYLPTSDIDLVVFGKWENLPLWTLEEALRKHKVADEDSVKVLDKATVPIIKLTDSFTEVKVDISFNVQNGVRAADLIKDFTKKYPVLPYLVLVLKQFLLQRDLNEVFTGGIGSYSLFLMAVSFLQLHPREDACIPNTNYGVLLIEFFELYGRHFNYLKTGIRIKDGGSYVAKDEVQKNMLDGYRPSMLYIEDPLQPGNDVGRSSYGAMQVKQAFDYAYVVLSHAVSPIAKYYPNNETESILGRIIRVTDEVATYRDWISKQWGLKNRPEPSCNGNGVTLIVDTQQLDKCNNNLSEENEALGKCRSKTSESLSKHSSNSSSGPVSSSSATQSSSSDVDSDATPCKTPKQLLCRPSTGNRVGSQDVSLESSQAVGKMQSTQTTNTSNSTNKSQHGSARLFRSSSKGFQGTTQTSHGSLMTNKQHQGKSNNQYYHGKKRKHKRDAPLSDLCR
Kind of test: differential scanning fluorimetry (DSF) binding and stabilization of rPAPD5. Particulars: 100 μM test compound; shift vs DMSO control; read-out: ΔTm at 100 μM. The procedure: Binding and stabilization of rPAPD5 by test compounds was determined using differential scanning fluorimetry (DSF). DSF assays were performed to determine protein melting temperature using an indicator dye SYPRO orange (Thermo Fisher Scientific, S6651) diluted 1:5000 in […] of buffer containing […], […] (Jena Biosciences), 25 mM Tris-HCl, 5 mM MgCl2, 50 mM KCl. […] DMSO was used as a negative control. Each curve was an average of three measurements and Thermal Shift software (Thermo Fisher Scientific, 4466038) was used for analysis. […] The change in melting temperature (ΔTm) is in reference to the DMSO control. Referring to Table 2, “+” refers to ΔTm values below 1° C., “++” refers to ΔTm values from 1 to 5° C., and “+++” refers to ΔTm values above 5° C.
In general terms: DSF heats the sample and reads unfolding from a dye or from intrinsic fluorescence.
Regarding `O=C(O)c1ccccc1Nc1c(-c2nccs2)cnc2ccc(Cl)cc12` [Compound 211A, 2-[(6-chloro-3-thiazol-2-yl-4-quinolyl)amino]benzoic acid], the ΔTm (usually the change in melting temperature against a reference sample) at 100 µM was over 5 °C.
The figure for `O=C(O)c1ccccc1Nc1c(-c2cnoc2)cnc2ccc(Cl)cc12` [Compound 212A, 2-[(6-chloro-3-isoxazol-4-yl-4-quinolyl)amino]benzoic acid] is 1 to 5 °C; for `O=C(O)c1ccccc1Nc1c(S(=O)(=O)NC2CCOCC2)cnc2ccc(Cl)cc12` [Compound 216A, 2-[[6-chloro-3-(tetrahydropyran-4-ylsulfamoyl)-4-quinolyl]amino]benzoic acid] it is over 5 °C; for `O=C(O)c1ccccc1Nc1c(S(=O)(=O)NC2CCC(F)(F)CC2)cnc2ccc(Cl)cc12` [Compound 217A, 2-[[6-chloro-3-[(4,4-difluorocyclohexyl)sulfamoyl]-4-quinolyl]amino]benzoic acid] it is over 5 °C.
The result for `CN1CCC(NS(=O)(=O)c2cnc3ccc(Cl)cc3c2Nc2ccccc2C(=O)O)CC1` [Compound 219A, 2-[[6-chloro-3-[(1-methyl-4-piperidyl)sulfamoyl]-4-quinolyl]amino]benzoic acid] reads 1 to 5 °C.
The result for `O=C(O)c1ccccc1Nc1c(S(=O)(=O)N2CCS(=O)(=O)CC2)cnc2ccc(Cl)cc12` [Compound 220A, 2-[[6-chloro-3-[(1,1-dioxo-1,4-thiazinan-4-yl)sulfonyl]-4-quinolyl]amino]benzoic acid] reads over 5 °C; that for `O=C(O)c1ccccc1Nc1c(S(=O)(=O)Nc2ccncc2)cnc2ccc(Cl)cc12` [Compound 221A, 2-[[6-chloro-3-(4-pyridylsulfamoyl)-4-quinolyl]amino]benzoic acid], over 5 °C.
As to `NS(=O)(=O)c1ccc(NS(=O)(=O)c2cnc3ccc(Cl)cc3c2Nc2ccccc2C(=O)O)cc1` [Compound 231A, 2-[[6-chloro-3-[(4-sulfamoylphenyl)sulfamoyl]-4-quinolyl]amino]benzoic acid], the ΔTm at 100 µM is over 5 °C.
The figure for `O=C(O)c1ccccc1Nc1c(Br)cnc2ccc(Cl)cc12` [Compound 232A, 2-[(3-bromo-6-chloro-4-quinolyl)amino]benzoic acid] is over 5 °C; for `O=C(O)c1ccccc1Nc1c(S(=O)(=O)N2CCOCC2)cnc2ccc(C(F)(F)F)cc12` [Compound 234A, 2-[[3-morpholinosulfonyl-6-(trifluoromethyl)-4-quinolyl]amino]benzoic acid] it is over 5 °C.
The result for `CC(=O)NS(=O)(=O)c1ccc2ncc(S(=O)(=O)N3CCOCC3)c(Nc3ccccc3C(=O)O)c2c1` [Compound 235A, 2-[[6-(acetylsulfamoyl)-3-morpholinosulfonyl-4-quinolyl]amino]benzoic acid] reads 1 to 5 °C; that for `O=C(O)c1ccccc1Nc1c(S(=O)(=O)N2CCOCC2)cnc2ccc(OC(F)F)cc12` [Compound 236A, 2-[[6-(difluoromethoxy)-3-morpholinosulfonyl-4-quinolyl]amino]benzoic acid], over 5 °C; that for `O=C(O)c1ccccc1Nc1c(S(=O)(=O)N2CCOCC2)cnc2ccc(NC3CCOCC3)cc12` [Compound 237A, 2-[[3-morpholinosulfonyl-6-(tetrahydropyran-4-ylamino)-4-quinolyl]amino]benzoic acid], under 1 °C.
As to `O=C(O)c1ccccc1Nc1c(S(=O)(=O)N2CCOCC2)cnc2ccc(NC3CCC(F)(F)CC3)cc12` [Compound 238A, 2-[[6-[(4,4-difluorocyclohexyl)amino]-3-morpholinosulfonyl-4-quinolyl]amino]benzoic acid], the shift in melting temperature (ΔTm) at 100 µM was in the range of 1 to 5 °C.
The figure for `O=C(O)c1ccccc1Nc1c(S(=O)(=O)N2CCOCC2)cnc2ccc(NC3CCNCC3)cc12` [Compound 239A, 2-[[3-morpholinosulfonyl-6-(4-piperidylamino)-4-quinolyl]amino]benzoic acid] is 1 to 5 °C; for `O=C(O)c1ccccc1Nc1c(S(=O)(=O)N2CCOCC2)cnc2ccc(Nc3ccncc3)cc12` [Compound 240A, 2-[[3-morpholinosulfonyl-6-(4-pyridylamino)-4-quinolyl]amino]benzoic acid] it is 1 to 5 °C.
The result for `O=C(O)c1ccccc1Nc1c(S(=O)(=O)N2CCOCC2)cnc2ccc(Nc3ncco3)cc12` [Compound 241A, 2-[[3-morpholinosulfonyl-6-(oxazol-2-ylamino)-4-quinolyl]amino]benzoic acid] reads over 5 °C; that for `O=C(O)c1ccccc1Nc1c(S(=O)(=O)N2CCOCC2)cnc2ccc(Nc3ccc4[nH]cnc4c3)cc12` [Compound 247A, 2-[[6-(1H-benzimidazol-5-ylamino)-3-morpholinosulfonyl-4-quinolyl]amino]benzoic acid], 1 to 5 °C.
The result for `O=C(O)c1ccccc1Nc1c(S(=O)(=O)N2CCOCC2)cnc2ccc(N3CCOCC3)cc12` [Compound 248A, 2-[(6-morpholino-3-morpholinosulfonyl-4-quinolyl)amino]benzoic acid] reads 1 to 5 °C.
As for `NS(=O)(=O)c1ccc2ncc(S(=O)(=O)N3CCOCC3)c(Nc3ccccc3C(=O)O)c2c1` [Compound 249A, 2-[(3-morpholinosulfonyl-6-sulfamoyl-4-quinolyl)amino]benzoic acid], the ΔTm at 100 µM is over 5 °C.
The figure for `O=C(O)c1ccccc1Nc1c(S(=O)(=O)N2CCOCC2)cnc2ccccc12` [Compound 250A, 2-[(3-morpholinosulfonyl-4-quinolyl)amino]benzoic acid] is over 5 °C; for `O=C(O)c1c(Nc2c(S(=O)(=O)N3CCOCC3)cnc3ccc(Cl)cc23)cccc1-c1ncco1` [Compound 261A, 2-[(6-chloro-3-morpholinosulfonyl-4-quinolyl)amino]-6-oxazol-2-yl-benzoic acid] it is under 1 °C.
Turning to `O=C(O)c1cc(B(O)O)ccc1Nc1c(S(=O)(=O)N2CCOCC2)cnc2ccc(Cl)cc12` [Compound 263A, 5-borono-2-[(6-chloro-3-morpholinosulfonyl-4-quinolyl)amino]benzoic acid], the ΔTm at 100 µM was over 5 °C.
The result for `O=C(O)c1cc(O)ccc1Nc1c(S(=O)(=O)N2CCOCC2)cnc2ccc(Cl)cc12` [Compound 265A, 2-[(6-chloro-3-morpholinosulfonyl-4-quinolyl)amino]-5-hydroxy-benzoic acid] reads over 5 °C; that for `O=C(O)c1cc(Br)ccc1Nc1c(S(=O)(=O)N2CCOCC2)cnc2ccc(Cl)cc12` [Compound 268A, 5-bromo-2-[(6-chloro-3-morpholinosulfonyl-4-quinolyl)amino]benzoic acid], under 1 °C; that for `O=C(O)c1cc(C(F)(F)F)ccc1Nc1c(S(=O)(=O)N2CCOCC2)cnc2ccc(Cl)cc12` [Compound 271A, 2-[(6-chloro-3-morpholinosulfonyl-4-quinolyl)amino]-5-(trifluoromethyl)benzoic acid], 1 to 5 °C.
The figure for `Cc1ccc(C(=O)O)c(Nc2c(S(=O)(=O)N3CCOCC3)cnc3ccc(Cl)cc23)c1` [Compound 272A, 2-[(6-chloro-3-morpholinosulfonyl-4-quinolyl)amino]-4-methyl-benzoic acid] is over 5 °C; for `O=C(O)c1ccc(O)cc1Nc1c(S(=O)(=O)N2CCOCC2)cnc2ccc(Cl)cc12` [Compound 273A, 2-[(6-chloro-3-morpholinosulfonyl-4-quinolyl)amino]-4-hydroxy-benzoic acid] it is 1 to 5 °C.
